Our source for the IC50 values is US20110053925A1, “Hydroxamate-Based Inhibitors of Deacetylases” (Novartis AG, priority 2009, published 2011).

For one test, the target named is T1, HDAC-1 (Homo sapiens, UniProt Q13547).
T1 construct: made in house; host or cells: Sf9 or Sf21 insect cells (baculovirus, donor vector pFB-GSTX3)
Kind of test: HDAC Inhibition Assay (purified GST-HDAC protein). It is filed as biochemical. The text has this:
The baculovirus donor vector pFB-GSTX3 is used to generate a recombinant baculovirus that can express the HDAC polypeptide. Transfer vectors containing the HDAC coding region are transfected into the DH10Bac cell line (GIBCO) and plated on selective agar plates. Colonies without insertion of the fusion sequence into the viral genome (carried by the bacteria) are blue. Single, white colonies are picked and viral DNAs (bacmid) are isolated from the bacteria by standard plasmid purification procedures. Sf9 cells or Sf21 (American Type Culture Collection) cells are then transfected in […] flasks with the viral DNA using Cellfectin reagent.
Virus-containing media is collected from the transfected cell culture and used for infection to increase its titer. Virus-containing media obtained after two rounds of infection is used for large-scale protein expression. For large-scale protein expression 100 cm^2 round tissue culture plates are seeded with 5×10^7 cells/plate and infected with 1 mL of virus-containing media (at an approximately MOI of 5). After 3 days, the cells are scraped off the plate and centrifuged at 500 rpm for 5 minutes. Cell pellets from 10-20, 100 cm^2 plates, are re-suspended in 50 mL of ice-cold lysis buffer (25 mM tris-HCl, pH 7.5, 2 mM EDTA, 1% NP-40, 1 mM DTT, 1 mM P MSF). The cells are stirred on ice for 15 minutes and then centrifuged at 5,000 rpms for 20 minutes.
The centrifuged cell lysate is loaded onto a 2 mL glutathione-sepharose column (Pharmacia) and is washed thrice with 10 mL of 25 mM tris-HCl, pH 7.5, 2 mM EDTA, 1 mM DTT, 200 mM NaCl. The GST-tagged proteins are then eluted by 10 applications (1 mL each) of 25 mM tris-HCl, pH 7.5, 10 mM reduced-glutathione, 100 mM NaCl, 1 mM DTT, 10% glycerol and stored at −70° C.
HDAC assays with purified GST-HDAC protein are carried out in a final volume of 30 μL containing 15 ng of GST-HDAC protein, 20 mM tris-HCl, pH 7.5, 1 mM MnCl2, 10 mM MgCl2, 1 mM DTT, 3 μg/mL poly(Glu,Tyr) 4:1, 1% DMSO, 2.0 μM ATP (γ-[^33P]-ATP 0.1 μCi). The activity is assayed in the presence or absence of inhibitors. […] Subsequently, […] of the reaction mixture are transferred onto EMMOBILON-PVDF membrane (Millipore) previously soaked for 5 minutes with methanol, rinsed with water, then soaked for 5 minutes with 0.5% H3PO4 and mounted on vacuum manifold with disconnected vacuum source. After spotting all samples, a vacuum is connected and each well rinsed with 200 μL 0.5% H3PO4. Membranes are removed and washed four times on a shaker with 1.0% H3PO4, once with ethanol. Membranes are counted after drying at ambient temperature, mounting in Packard TopCount 96-well frame, and addition of 10 μL/well of MICROSCINT™ (Packard).
• Input: 3×4 μL stopped assay on IMMOBILON membrane, not washed • Background (3 wells): assay with H2O instead of enzyme • Positive control (4 wells): 3% DMSO instead of compound • Bath control (1 well): no reaction mix
In each experiment, the actual inhibition by reference compound is used for normalization of IC50 values to the basis of an average value of the reference inhibitor:
Normalized IC50=measured IC50 average ref. IC50/measured ref. IC50

The next test concerns HCT116. Kind of test: HCT116 IC50. It is filed as cell-based. As to conditions: Homo sapiens, HCT-116.

T1 sequence (Q13547 whole entry, species assumed): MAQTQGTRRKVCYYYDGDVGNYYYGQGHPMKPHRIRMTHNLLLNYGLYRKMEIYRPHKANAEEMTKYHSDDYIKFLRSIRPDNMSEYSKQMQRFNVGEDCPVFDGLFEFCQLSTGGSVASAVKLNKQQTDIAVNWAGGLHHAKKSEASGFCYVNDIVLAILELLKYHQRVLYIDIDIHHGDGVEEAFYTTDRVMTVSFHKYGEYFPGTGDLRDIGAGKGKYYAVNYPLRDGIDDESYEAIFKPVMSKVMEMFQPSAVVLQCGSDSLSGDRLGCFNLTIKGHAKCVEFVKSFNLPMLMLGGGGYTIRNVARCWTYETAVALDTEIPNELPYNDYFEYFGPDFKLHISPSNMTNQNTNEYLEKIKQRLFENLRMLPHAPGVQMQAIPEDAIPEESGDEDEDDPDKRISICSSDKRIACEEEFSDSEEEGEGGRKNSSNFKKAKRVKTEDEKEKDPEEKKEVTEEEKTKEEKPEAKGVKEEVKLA

For orientation: IC50 means the midpoint of a concentration-inhibition curve. Read a low IC50 as higher potency. Consider `CC(C)c1[nH]c2ccccc2c1C1CCCN(Cc2ccc(CCC(=O)NO)cc2F)C1` (centres unmarked) [Compound 21, 3-{3-Fluoro-4-[3-(2-isopropyl-1H-indol-3-yl)-piperidin-1-ylmethyl]-phenyl}-N-hydroxy-propionamide], for which the concentration for half-maximal inhibition (IC50) against HDAC-1 was 0.006 µM; in the test with HCT116 it was 0.021 µM.
